Measured values taken from patent publication US20180289008A1, “METHODS FOR WILDFIRE CONTROL, INVASIVE PLANT CONTROL, AND RESIDUAL CONTROL OF INVASIVE PLANTS” (priority 2017, published 2018).

System: all nine weed species
Assay: Greenhouse pre-emergence dose-response bioassay, across all nine weed species
Assay type: in vivo
Conditions: averaging across all nine weed species
Text: A greenhouse experiment was designed to determine if the extended control of Dalmatian toadflax and downy brome provided by indaziflam in the field was due to increased residual seedling control. This experiment was designed to compare indaziflam's pre-emergence efficacy to the currently recommended herbicides (aminocyclopyrachlor and aminopyralid) for annual, biennial, and perennial weed control in non-crop areas. […] This allows for direct comparisons between herbicides on an active ingredient basis for aminopyralid, aminocyclopyrachlor, and indaziflam. […]
Plants were harvested at the soil surface approximately 4 to 5 week-after-treatment (WAT) depending on the growth stage of each species. Weights were recorded after samples were dried for 5 days at 60° C. Percent dry weight reduction was calculated relative to the non-treated control plants for each treatment.
Data from the greenhouse dose-response experiment were first analyzed using the PROC MIXED method in SAS 9.3 with treatment as a fixed effect and experiment and replicate as random effects (SAS Institute 2010). […] The herbicide concentrations resulting in 50% reduction in plant biomass (GR50) compared to the non-treated control were determined for each invasive weed species using four-parameter log-logistic regression. […]

Which “times more active than aminocyclopyrachlor” value does the source give for `Cc1ccc2c(c1)[C@H](Nc1nc(N)nc(C(C)F)n1)[C@@H](C)C2` (mixture of isomers) [Indaziflam, N2-[(1R,2S)-2,3-dihydro-2,6-dimethyl-1H-inden-1-yl]-6-[(1RS)-1-fluoroethyl]-1,3,5-triazine-2,4-diamine] here?
Its value is 29.

And the “times more active than aminopyralid” value?
The value was 52.
